# Patent US8881823B2, “Environmentally friendly low temperature breaker systems and related methods” (Halliburton Energy Services, Inc., priority 2011, dated 2014)
# Tests used:
# [1] = Biodegradability, OECD 301 D Closed Bottle Test
# Source text: The same protocol was used to test EDTA (“DISSOLVINE AM3-40” available from AkzoNobel Corporate) and sodium acetate.
# [2] = Initial and over time miscibility and pH in potassium formate brines; assay type: physicochemical; conditions: for After Static Aging: overnight 150° F.; for pH Final: static 16 hrs @ 150° F.
# Procedure: Completion breaker solutions were to be tested at 5%, 10%, and 20% by volume concentrations in each of the brines. The initial miscibility and the miscibility after static aging overnight at 150° F. were observed. Also, the pH of the final mixes was measured. The different concentrations of the breaker solutions were prepared with fresh water and filtered through a 1.6 μm glass fiber filter prior to testing.
# The tests were run by adding the appropriate volume of the test breaker (5%, 10%, or 20% by volume) to the volume of the test brine needed to total 100 ml in a 4 ounce jar, sealing it, and swirling to mix the components. Observation was noted of the compatibility of the components.
# [3] = 5% by volume, potassium formate brine 11.0 lb/gal
# [4] = 5% by volume, potassium formate brine 12.0 lb/gal
# [5] = 5% by volume, potassium formate brine 13.0 lb/gal
# [6] = 10% by volume, potassium formate brine 11.0 lb/gal
# [7] = 10% by volume, potassium formate brine 12.0 lb/gal
# [8] = 10% by volume, potassium formate brine 13.0 lb/gal
# [9] = 20% by volume, potassium formate brine 11.0 lb/gal
# [10] = 20% by volume, potassium formate brine 12.0 lb/gal
# [11] = 20% by volume, potassium formate brine 13.0 lb/gal
compound,measurement,setting,value
"O=C(O)CC[C@@H](C(=O)O)N(CC(=O)O)CC(=O)O [GLDA, L-glutamic acid N,N-diacetic acid]",Biodegradability,[1],Easy
same,biodegradability (in words),[1],readily biodegradable
same,Initial Observation,[2]; [3],"Clear, totally soluble"
same,After Static Aging,[2]; [3],"Clear, totally soluble"
same,pH Final,[2]; [3],12.7
same,Initial Observation,[2]; [4],"Clear, totally soluble"
same,After Static Aging,[2]; [4],"Clear, totally soluble"
same,pH Final,[2]; [4],13.3
same,Initial Observation,[2]; [5],"Clear, totally soluble"
same,After Static Aging,[2]; [5],"Clear, totally soluble"
same,pH Final,[2]; [5],13.8
same,Initial Observation,[2]; [6],"Clear, totally soluble"
same,After Static Aging,[2]; [6],"Clear, totally soluble"
same,pH Final,[2]; [6],13.3
same,Initial Observation,[2]; [7],"Clear, totally soluble"
same,After Static Aging,[2]; [7],"Clear, totally soluble"
same,pH Final,[2]; [7],14.4
same,Initial Observation,[2]; [8],"Clear, totally soluble"
same,After Static Aging,[2]; [8],"Clear, totally soluble"
same,pH Final,[2]; [8],15.0
same,Initial Observation,[2]; [9],"Clear, totally soluble"
same,After Static Aging,[2]; [9],"Clear, totally soluble"
same,pH Final,[2]; [9],13.7
same,Initial Observation,[2]; [10],"Clear, totally soluble"
same,After Static Aging,[2]; [10],"Clear, totally soluble"
same,pH Final,[2]; [10],14.7
same,Initial Observation,[2]; [11],"Clear, totally soluble"
same,After Static Aging,[2]; [11],"Clear, totally soluble"
same,pH Final,[2]; [11],15.4
same,solubility / miscibility in the potassium formate brines,"[2]; tested concentrations, 11.0-13.0 lb/gal brines",soluble in the tested concentrations of the potassium formate brine
